Laboratory results published in PubChem BioAssay (NCI).
Several values for one entry are separate records, joined by “and”; a condition that tells them apart may be missing. Equal entries are not always repeated.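 48-hour exposure; five concentrations; linearly interpolated endpoints. GI50 marks 50% less growth. TGI: concentration producing complete growth inhibition.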

Assays:
Assay in all cases: inhibition of tumour cell growth, NCI panel, 48 h
TK-10 renal = tested on: TK-10 renal
MDA-MB-231 breast = tested on: MDA-MB-231 breast
EKVX NSCLC = tested on: EKVX NSCLC
A498 renal = tested on: A498 renal
MOLT-4 leukemia = tested on: MOLT-4 leukemia
RPMI-8226 leukemia = tested on: RPMI-8226 leukemia
OVCAR-5 ovarian = tested on: OVCAR-5 ovarian
ACHN renal = tested on: ACHN renal
HT29 colon = tested on: HT29 colon
K-562 leukemia = tested on: K-562 leukemia

SMILES	GI50 (TK-10 renal)	TGI (TK-10 renal)	GI50 (MDA-MB-231 breast)	TGI (MDA-MB-231 breast)	GI50 (EKVX NSCLC)	TGI (EKVX NSCLC)	GI50 (A498 renal)	TGI (A498 renal)	GI50 (MOLT-4 leukemia)	TGI (MOLT-4 leukemia)	GI50 (RPMI-8226 leukemia)	TGI (RPMI-8226 leukemia)	GI50 (OVCAR-5 ovarian)	TGI (OVCAR-5 ovarian)	GI50 (ACHN renal)	TGI (ACHN renal)	GI50 (HT29 colon)	TGI (HT29 colon)	GI50 (K-562 leukemia)	TGI (K-562 leukemia)
COc1ccc(CCNc2nc3ccccc3c3[nH]c4ccccc4c23)cc1OC	4.47 µM	17 µM	2.21 µM	8.03 µM	22.6 µM	45.3 µM	2.75 µM	9.48 µM	3.23 µM	12.3 µM	2.18 µM	5.24 µM	3.48 µM	11.6 µM	3.91 µM	17.1 µM	2.04 µM	6.32 µM	2.45 µM	10.2 µM
CC1(CCCC2(C)CCNC2=O)OCCO1 (stereo not drawn)		> 10 µM		> 10 µM		> 10 µM		> 10 µM		> 10 µM		> 10 µM		> 10 µM		> 10 µM		> 10 µM		> 10 µM
COc1ccc(C(=O)/C=C/c2ccc(Cl)cc2)cc1S(N)(=O)=O	2.47 µM	7.81 µM	3.48 µM	11.7 µM	4.56 µM	18.4 µM	10.4 µM	22.1 µM	2.93 µM	9.16 µM	2.61 µM	6.53 µM	3.08 µM	13.8 µM	1.94 µM	4.12 µM	3.27 µM	10.5 µM	0.568 µM	> 100 µM
Cc1cc(O)c2c(c1)C[C@@H](O)C1=C2C(=O)c2c(O)ccc(OC3CC(O)C(OC4CC(OC5CCC(OC6CC(O)C(OC7CC(OC8CCC(O)C(C)O8)C(O)C(C)O7)C(C)O6)C(C)O5)C(O)C(C)O4)C(C)O3)c2C1=O (stereo partly drawn)	2.13 µM and 2.93 µM		0.433 µM and 0.251 µM	0.259 µM and 1.49 µM and 0.549 µM	1.7 µM and 1.37 µM		2.72 µM and 2.47 µM		0.0541 µM	0.216 µM and 0.343 µM	0.321 µM and 0.483 µM		1.88 µM and 0.666 µM		1.52 µM and 0.726 µM		0.847 µM	0.318 µM and 2.3 µM	0.144 µM	0.267 µM and 0.457 µM
COc1ccc(C(=O)c2cc3c(N)c(C(=O)Nc4cccc(Cl)c4)sc3nc2C)cc1	> 33.3 µM	> 33.3 µM	2.55 µM	> 33.3 µM	2.06 µM	> 33.3 µM	0.821 µM	> 33.3 µM	1.89 µM	> 33.3 µM	1.19 µM	> 33.3 µM	1.69 µM	> 33.3 µM	2.12 µM	> 33.3 µM	1.2 µM	> 33.3 µM	1.36 µM	> 33.3 µM
O=C(Nc1ccc(Cl)c(Cl)c1)Nc1ccc(Cl)c([N+](=O)[O-])c1	1.42 µM	6.9 µM	2.93 µM	7.09 µM	1.04 µM	7.35 µM	1.37 µM	4.47 µM	0.925 µM	> 25 µM	0.895 µM	9.47 µM	2.79 µM	9.29 µM	0.8 µM	3.06 µM	1.24 µM	4.82 µM	1.06 µM	19 µM
Cc1ccc(CCC(=O)Nc2ncc(Cc3cc(Cl)ccc3Cl)s2)o1	2.81 µM	> 66.5 µM	0.388 µM	3.35 µM	0.466 µM	> 100 µM	0.171 µM	0.801 µM	0.222 µM	> 44.2 µM	0.335 µM	61.1 µM	0.455 µM	14.1 µM	0.665 µM	4.85 µM	0.054 µM		0.0401 µM	> 100 µM
Cn1cc(-c2ccc3cc(-c4ccc(CC(=O)Nc5cc(C(C)(C)C)nn5C)cc4)cnc3c2)cn1	0.492 µM	> 100 µM	0.317 µM	> 100 µM	0.282 µM	> 100 µM	0.0246 µM	0.175 µM	0.282 µM	> 100 µM	0.254 µM	1.78 µM	0.606 µM	> 100 µM	0.11 µM	> 100 µM	0.377 µM	> 100 µM	0.347 µM	> 100 µM
CC(=O)NC1(C)CCC(C(C)(C)NC(C)=O)CC1 (stereo not drawn)		> 100 µM		> 100 µM		> 100 µM		> 100 µM		> 100 µM		> 100 µM		> 100 µM		> 100 µM		> 100 µM		> 100 µM
[O-][n+]1onc2c3nn(-c4ccccc4)nc3ccc21		> 88.7 µM		> 100 µM		> 100 µM		> 100 µM		> 100 µM		53.3 µM		> 100 µM		> 100 µM		> 100 µM		> 100 µM
Cc1c2c(n3c(nc4ccccc43)c1C#N)SCC2		> 10 µM		> 10 µM		> 10 µM		> 10 µM		> 10 µM		> 10 µM		> 10 µM		> 10 µM		> 10 µM		> 10 µM
CC/C=C/[C@@H]1C=C[C@@H]2CCC[C@H]2[C@@H]1CC[C@H](O)[C@H](C)N	1.36 µM	2.68 µM	1.78 µM	3.22 µM	15.2 µM	31.9 µM	1.62 µM	5.58 µM	1.72 µM	3.68 µM	3.07 µM	9.79 µM	1.69 µM	3.55 µM	1.59 µM	2.94 µM	1.46 µM	2.77 µM	1.38 µM	2.67 µM
